This note sets out measurements from patent US9675616B2, “Arylaminoalcohol-substituted 2,3-dihydroimidazo[1,2-C]quinolines” (BAYER INTELLECTUAL PROPERTY GMBH, priority 2010, dated 2017).

Test [1] concerns the target PI3Kα (complex of human p110α and human p85α) (Homo sapiens (Human), UniProt P42336). Nature of the test: PI3Kα kinase assay (HTRF-based PI3K inhibition assay). Conditions: 10 μM ATP, 10 μM PIP2; average value; read-out: average IC50 in the PI3K alpha biochemical assay. An excerpt: Determination of % Inhibition and IC50 Values of Compounds in PI3Kα Kinase Assay
PI3Kα inhibitory activity of compounds of the present invention was quantified employing the HTRF-based PI3K inhibition assay as described below.
(§1) Chemicals and Assay Materials
(§2) As reagents for the kinase reaction itself and the quantification of the reaction product, the PI3-Kinase HTRF Assay kit from Millipore (#33-017) was used. With this kit the phosphatidylinositol 3,4,5-trisphosphate (PIP3) generated in the kinase reaction is detected by displacement of a biotinylated ligand from an energy transfer complex consisting of a Europium-labeled anti-GST monoclonal antibody, a GST-tagged PH domain, biotinylated PIP3 and Streptavidin-Allophycocyanin (APC).
The amount of PI3Kα was chosen to have the enzyme reaction in the linear range and depended on the activity of the individual lot, typical concentrations in assay were in the range of 90 ng/mL. […]
The reaction was stopped by the addition of 1 μL of an stop solution (containing the biotinylated PIP3 used as a tracer), then 1 μL detection mix (containing a Europium-labeled anti-GST monoclonal antibody, a GST-tagged PH domain, and Streptavidin-Allophycocyanin) was added and resulting mixture was incubated 3 h at 22° C. to allow the formation of complexes between the detection reagents and either the PIP3 generated in the kinase reaction, or the biotinylated PIP3 added with the stop solution. Subsequently, the amount of energy transfer complex consisting of a Europium-labeled anti-GST monoclonal antibody, a GST-tagged PH domain, biotinylated PIP3 and Streptavidin-Allophycocyanin (APC) was evaluated by measurement of the resonance energy transfer from the Europium-labeled anti-GST monoclonal antibody to the Streptavidin-Allophycocyanin. Therefore, the fluorescence emissions at 620 nm and 665 nm after excitation at 350 nm were measured using a TR-FRET reader, e.g., a Pherastar (BMG Labtechnologies, Offenburg, Germany) or a Viewlux (Perkin-Elmer). […]
(In general: TR-FRET usually uses a lanthanide donor and a delayed reading to cut background.)

Test [2] has as its target PI3Kβ (complex of human p110β and human p85α) (Homo sapiens (Human), UniProt P42338). Nature of the test: PI3Kβ kinase assay (HTRF based PI3K inhibition assay). Conditions: for IC50: 10 μM ATP, 10 μM PIP2, average value, read-out: average IC50 in the PI3K beta biochemical assay; for PI3K beta average IC50/PI3K alpha average IC50: ratio of beta IC50 to alpha IC50 (isoform balance). The test is classed as biochemical.
Source text: Determination of % Inhibition and IC50 Values of Compounds in PI3Kβ Kinase Assay
PI3Kβ inhibitory activity of compounds of the present invention was quantified employing the HTRF based PI3K inhibition assay as described below.
as §1, §2
For the assay 50 nL of a 80-fold concentrated solution of the test compound in DMSO was pipetted into a black low volume 384-well microtiter plate (Greiner Bio-One, Frickenhausen, Germany), 3 μl of a solution of PI3Kβ and phosphatidylinositol-4,5-bisphosphate (PIP2, 13.8 μM=>final conc. in 4 μl reaction volume=10 μM) in 1× reaction buffer (exact composition not disclosed by the vendor) were added and the mixture was incubated for 15 min at 22° C. to allow pre-binding of the test compounds to the enzyme before the start of the kinase reaction. The amount of PI3Kβ was chosen to have the enzyme reaction in the linear range and depended on the activity of the individual lot, typical concentrations in assay were in the range of 120 ng/mL. Then the kinase reaction was started by the addition of 1 μL of a solution of adenosine triphosphate (ATP, 40 μM=>final conc. in the 4 μl assay volume is 10 μM) in reaction buffer and the resulting mixture was incubated for a reaction time of 20 min at 22° C.
The reaction was stopped by the addition of 1 μL of an stop solution (containing the biotinylated PIP3 used as a tracer). Then 1 μL detection mix (containing a Europium-labeled anti-GST monoclonal antibody, a GST-tagged PH domain, and Streptavidin-Allophycocyanin) was added and resulting mixture was incubated for 3 h at 22° C. to allow the formation of complexes between the detection reagents and either the PIP3 generated in the kinase reaction, or the biotinylated PIP3 added with the stop solution. Subsequently the amount of energy transfer complex consisting of a Europium-labeled anti-GST monoclonal antibody, a GST-tagged PH domain, biotinylated PIP3 and Streptavidin-Allophycocyanin (APC) was evaluated by measurement of the resonance energy transfer from the Europium-labeled anti-GST monoclonal antibody to the Streptavidin-Allophycocyanin. Therefore, the fluorescence emissions at 620 nm and 665 nm after excitation at 350 nm were measured using a TR-FRET reader, e.g., a Pherastar (BMG Labtechnologies, Offenburg, Germany) or a Viewlux (Perkin-Elmer). The ratio of the emissions at 665 nm and at […] were taken as the measure for the amount of biotinylated PIP3 bound to the GST-tagged PH domain, which is negatively correlated with the amount of PIP3 generated.

PI3Kβ (complex of human p110β and human p85α), sequence (P42338 whole entry, canonical isoform): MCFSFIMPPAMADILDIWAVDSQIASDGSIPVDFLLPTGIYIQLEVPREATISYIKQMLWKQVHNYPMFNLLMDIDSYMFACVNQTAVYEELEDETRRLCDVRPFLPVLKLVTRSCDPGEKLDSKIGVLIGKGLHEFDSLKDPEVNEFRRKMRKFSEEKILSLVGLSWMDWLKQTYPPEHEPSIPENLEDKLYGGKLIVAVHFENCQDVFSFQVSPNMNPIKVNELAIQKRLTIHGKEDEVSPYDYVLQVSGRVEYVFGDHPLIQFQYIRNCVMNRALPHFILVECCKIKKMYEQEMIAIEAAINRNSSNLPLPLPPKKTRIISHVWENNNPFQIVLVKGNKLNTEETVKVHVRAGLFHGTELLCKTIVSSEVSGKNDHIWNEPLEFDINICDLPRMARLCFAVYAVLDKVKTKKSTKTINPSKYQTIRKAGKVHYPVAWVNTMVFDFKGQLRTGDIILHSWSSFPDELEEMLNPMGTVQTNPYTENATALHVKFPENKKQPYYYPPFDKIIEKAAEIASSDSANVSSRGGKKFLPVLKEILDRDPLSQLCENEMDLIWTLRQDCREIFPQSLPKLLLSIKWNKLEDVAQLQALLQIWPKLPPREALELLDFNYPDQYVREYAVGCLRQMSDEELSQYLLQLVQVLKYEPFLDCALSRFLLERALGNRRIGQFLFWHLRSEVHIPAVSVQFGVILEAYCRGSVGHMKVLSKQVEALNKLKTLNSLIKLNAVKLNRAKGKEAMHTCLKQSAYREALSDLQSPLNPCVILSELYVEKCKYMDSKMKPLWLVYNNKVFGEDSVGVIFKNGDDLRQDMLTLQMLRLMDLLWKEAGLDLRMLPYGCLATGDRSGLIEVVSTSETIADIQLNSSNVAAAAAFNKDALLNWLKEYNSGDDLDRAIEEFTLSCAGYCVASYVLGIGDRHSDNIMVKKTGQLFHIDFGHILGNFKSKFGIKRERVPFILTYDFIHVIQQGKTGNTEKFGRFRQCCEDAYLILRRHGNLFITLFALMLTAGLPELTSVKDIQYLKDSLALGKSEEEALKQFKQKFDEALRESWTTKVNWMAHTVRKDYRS
PI3Kβ (complex of human p110β and human p85α), sequence (P27986 whole entry partner, canonical isoform): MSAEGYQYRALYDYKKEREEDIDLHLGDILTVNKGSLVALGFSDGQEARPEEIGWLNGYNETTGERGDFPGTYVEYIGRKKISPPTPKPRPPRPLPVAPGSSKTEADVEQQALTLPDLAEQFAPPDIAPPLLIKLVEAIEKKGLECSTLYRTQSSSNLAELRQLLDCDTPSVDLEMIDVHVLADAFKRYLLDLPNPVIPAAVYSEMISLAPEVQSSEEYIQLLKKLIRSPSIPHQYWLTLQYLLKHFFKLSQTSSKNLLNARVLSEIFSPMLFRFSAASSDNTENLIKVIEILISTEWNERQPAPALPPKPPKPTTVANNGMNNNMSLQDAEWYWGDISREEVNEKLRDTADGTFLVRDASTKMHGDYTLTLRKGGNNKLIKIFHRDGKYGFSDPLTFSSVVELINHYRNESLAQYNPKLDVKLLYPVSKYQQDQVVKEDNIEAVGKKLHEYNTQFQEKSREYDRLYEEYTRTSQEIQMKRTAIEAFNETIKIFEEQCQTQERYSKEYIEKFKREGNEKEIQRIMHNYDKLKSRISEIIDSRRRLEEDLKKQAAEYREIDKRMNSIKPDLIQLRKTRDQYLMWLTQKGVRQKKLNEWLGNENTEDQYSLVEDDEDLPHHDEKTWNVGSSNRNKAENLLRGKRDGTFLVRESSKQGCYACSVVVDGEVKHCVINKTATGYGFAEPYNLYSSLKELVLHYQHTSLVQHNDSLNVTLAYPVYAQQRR
PI3Kα (complex of human p110α and human p85α), sequence (P42336 whole entry): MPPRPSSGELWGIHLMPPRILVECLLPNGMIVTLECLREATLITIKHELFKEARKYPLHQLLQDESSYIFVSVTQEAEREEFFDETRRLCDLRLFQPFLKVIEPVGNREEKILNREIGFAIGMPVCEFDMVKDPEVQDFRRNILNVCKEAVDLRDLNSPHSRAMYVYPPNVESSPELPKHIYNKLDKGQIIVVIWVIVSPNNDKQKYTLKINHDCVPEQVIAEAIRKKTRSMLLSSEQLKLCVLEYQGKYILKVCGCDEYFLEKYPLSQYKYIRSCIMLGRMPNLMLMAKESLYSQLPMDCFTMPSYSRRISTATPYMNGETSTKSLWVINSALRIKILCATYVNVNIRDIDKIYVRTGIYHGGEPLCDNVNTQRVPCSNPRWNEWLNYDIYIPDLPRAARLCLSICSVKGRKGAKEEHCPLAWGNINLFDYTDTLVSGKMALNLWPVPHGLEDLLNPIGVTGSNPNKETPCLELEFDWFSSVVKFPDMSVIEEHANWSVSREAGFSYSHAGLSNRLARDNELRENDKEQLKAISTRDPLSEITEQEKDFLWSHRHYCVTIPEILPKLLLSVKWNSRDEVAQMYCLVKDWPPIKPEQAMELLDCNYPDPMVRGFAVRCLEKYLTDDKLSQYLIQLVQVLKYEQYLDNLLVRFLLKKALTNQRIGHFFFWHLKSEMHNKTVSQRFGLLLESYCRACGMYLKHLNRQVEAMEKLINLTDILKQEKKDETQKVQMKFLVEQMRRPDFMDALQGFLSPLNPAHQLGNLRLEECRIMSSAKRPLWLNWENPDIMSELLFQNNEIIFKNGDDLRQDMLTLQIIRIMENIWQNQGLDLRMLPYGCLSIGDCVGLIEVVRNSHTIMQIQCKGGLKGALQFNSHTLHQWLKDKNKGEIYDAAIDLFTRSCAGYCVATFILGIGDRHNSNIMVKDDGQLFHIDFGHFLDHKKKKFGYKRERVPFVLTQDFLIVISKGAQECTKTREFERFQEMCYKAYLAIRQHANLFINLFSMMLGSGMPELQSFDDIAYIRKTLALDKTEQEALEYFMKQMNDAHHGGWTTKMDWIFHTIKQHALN
PI3Kα (complex of human p110α and human p85α), sequence (P27986 whole entry partner): as the sequence (P27986 whole entry partner, canonical isoform) above

Turning to `COc1c(OC[C@@H](O)CN[C@@H](C)c2ccccc2)ccc2c1N=C(NC(=O)c1cnc(N)nc1)N1CCN=C21` (relative stereo) [Example 5, rel-2-Amino-N-(8-{[(2R)-2-hydroxy-3-{[(1R)-1-phenylethyl]amino}propyl]oxy}-7-methoxy-2,3-dihydroimidazo[1,2-c]quinazolin-5-yl)pyrimidine-5-carboxamide], in test [1], the half-inhibitory concentration (IC50) (commonly the concentration that inhibits the measured activity by half) was below 10 nM. In test [2], the 50% inhibitory concentration (IC50) was below 10 nM and the “PI3K beta average IC50/PI3K alpha average IC50” value was 5.40.
In the case of `COc1c(OC[C@@H](O)CN[C@@H](C)c2ccccc2)ccc2c1N=C(NC(=O)c1cnc(N)nc1)N1CCN=C21` [Example 6, 2-Amino-N-(8-{[(2S)-2-hydroxy-3-{[(1S)-1-phenylethyl]amino}propyl]oxy}-7-methoxy-2,3-dihydroimidazo[1,2-c]quinazolin-5-yl)pyrimidine-5-carboxamide], the IC50 in test [1] and in test [2] was below 10 nM in each case. For the same molecule, the “PI3K beta average IC50/PI3K alpha average IC50” value in test [2] came to 7.01.
Turning to `COc1c(OC[C@H](O)CN[C@@H](C)c2ccccc2)ccc2c1N=C(NC(=O)c1cnc(N)nc1)N1CCN=C21` [Example 7, 2-Amino-N-(8-{[(2R)-2-hydroxy-3-{[(1S)-1-phenylethyl]amino}propyl]oxy}-7-methoxy-2,3-dihydroimidazo[1,2-c]quinazolin-5-yl)pyrimidine-5-carboxamide], in test [1], the IC50 was below 10 nM. Also, in test [2], the IC50 is below 10 nM and the “PI3K beta average IC50/PI3K alpha average IC50” value is listed as 3.44.
